7 compounds from US20050203063A1, “Proteasome pathway inhibitors and related methods” (priority 2003, published 2005) can be followed below.

The structures appear in SMILES notation.

The test system of assay [1] is cyclin-luciferase (cyc-luc) turnover, activated APC/C. Briefly: cyc-luc turnover in mitotic Xenopus extracts (pre-treated with non-degradable cyclin B). The assay is classed as biochemical. To be noted: 200 μM compound; extracts in mitosis before addition of compound. The protocol: (§1) FIG. 1. Functional classification of inhibitors. Compounds that scored in the initial screen were reacquired as dry powders and retested in Xenopus extracts in 4 assays at 200 μM concentration (32) as described (6). […] (A) Compounds and cyclin-luciferase were added to interphase extracts, which were then induced to enter mitosis by addition of non-degradable cyclin B. Percent inhibition of cyc-luc turnover by each compound is coded according to the grayscale shown at the bottom of the figure; specific values are available in Table 1. (B) Extracts were pre-treated with non-degradable cyclin B to allow entry into mitosis prior to addition of test compound and reporter protein. (C) Interphase extracts were treated by addition of recombinant Cdh1 to activate cyc-luc turnover. (D) Interphase extracts were treated with recombinant axin to induce turnover of β-catenin-luciferase.
(§2) The “Cmpd” column corresponds to the numbers used in FIG. 1; “Class” refers to the class of inhibitor described in FIG. 1 and the text. Columns A-D show percent inhibition in the four assays described in FIG. 1. (A) Interphase extracts (B) Mitotic extracts (C) Interphase extracts stimulated with Cdh1 (D) Degradation of a β-catenin reporter protein in interphase extracts stimulated with recombinant axin. […] “ID#” refers to the identification number of the inhibitor obtained from the NCI (prefaced by NSC) or Chembridge (prefaced by C).
(§3) Dry compounds were redissolved at 20 mM concentration in DMSO, or a 50:50 water:DMSO mixture in certain cases. These compounds were then diluted ten-fold in XB and mixed thoroughly. For the assay in FIG. 1A, chilled interphase extract was mixed with cyclin BΔ90 (10 μg/ml) and cyc-luc (0.1 μg/ml) in bulk and then 27 μl of extract was pipetted to each well of a chilled 384-well plate. Three microliters of each compound (diluted in XB) was then added to each well, and then compounds mixed thoroughly. Plates were warmed to room temperature. After 70 minutes, 5 μl aliquots were transferred to another plate, and then 30 μl of luciferin reagent was added to each well and luminescence measured. Percent inhibition was calculated as described above. The reported values represent the average of three independent measurments. For the assay in FIG. 1B, interphase extracts were treated with 10 μg/cyclin B 90 for 50 minutes at room temperature and then chilled on ice. Cyc-luc was then added, and then 27 μl of extract was pipetted to each well of a chilled 384-well plate. Three microliters of each compound (diluted in XB) was then added to each well, and then compounds mixed thoroughly. Plates were warmed to room temperature. After 60 minutes, 5 μl aliquots were transferred to another plate, and then 30 μl of luciferin reagent was added to each well and luminescence measured. For the assay in FIG. 1C, recombinant Cdh1 (0.1 μg/ml) and cyc-luc were added to chilled interphase extracts. Extracts were then pipetted and compounds added as above. Plates were warmed to room temperature and incubated for three hours, following which luminescence was measured as above. For the assay in FIG. 1D, chilled interphase extracts received recombinant axin and beta-catenin-luciferase reporter as described (8). Extracts were aliquoted to chilled plates and compounds distributed as described above. Plates were warmed to room temperature, incubated for three hours, and luminescence measured.

Assay [2] relates to Cdh1-stimulated cyc-luc proteolysis (APC/C). In words: cyc-luc turnover in interphase Xenopus extracts stimulated with recombinant Cdh1. The assay is classed as biochemical. To be noted: 200 μM compound; negative values reflect stimulation of proteolysis. The method, then:
as §1, §2, §3

The test system of assay [3] is β-catenin-luciferase turnover (substrate of the SCFβ-TRCP ubiquitin ligase). In words: β-catenin-luciferase turnover in interphase Xenopus extracts stimulated with recombinant axin. To be noted: 200 μM compound. Type of assay: biochemical. The protocol:
as §1, §2, §3

Assay [4] has as its system cyclin-luciferase (cyc-luc) turnover, APC/C activation. In words: cyc-luc turnover in interphase Xenopus extracts induced to enter mitosis by non-degradable cyclin B. Type of assay: biochemical. To be noted: 200 μM compound; added to interphase extracts then induced to enter mitosis; average of three measurements. The method, then: as §1, §2
Extracts were rapidly thawed and diluted to a final concentration of 75% in extract buffer (XB) just prior to assay (XB; 100 mM KCl, 0.1 mM CaCl2, 1 mM MgCl2, 10 mM potassium HEPES, pH 7.7, 50 mM sucrose). Extracts were kept on ice and supplemented with 1 mg/ml bovine ubiquitin (Sigma) unless otherwise stated. Cyc-luc expressed in reticulocyte lysate was diluted 1/200 for most assays. High-throughput screening utilized the bacterially expressed and purified cyclin-luc fusion protein, which was added to extracts at a final concentration of 0.1 μg/ml. To induce entrance into mitosis, cyclin BΔ90 protein was added to a final concentration of 10 μg/ml. For the dose response analysis, inhibitors were purchased from Calbiochem (San Diego, Calif.) and dissolved in DMSO as 10 mM stocks. Cyclin-luciferase and cyclin BΔ90 were mixed with interphase extract and placed on ice. Inhibitors were then added to extracts to yield a final DMSO concentration of 1%. 10 μl aliquots of extract were distributed into 384-well white Cliniplates (Labsystems), and cell cycle progression was initiated by warming the samples to room temperature. After 60 minutes, 30 μl of luciferin reagent (20 mM tricine pH 7.8, 470 μM D-Luciferin [Molecular Probes]), 270 μM Coenzyme A, 0.1 mM EDTA, 33 mM DTT, and 530 μM ATP) was added using a multidrop dispenser (Labsystems). Luminescence was measured on an Analyst plate reader (LJL Biosystems). The values for 3 replicates were averaged. For the dose response analysis, percent inhibition was calculated as 100*(T−M)/(I−M) where T equals the test value for the inhibitor, M equals the value in a mitotic extract lacking inhibitor, and I equals the value in an interphase extract. For certain experiments, methylated ubiquitin was added to interphase extracts at a concentration of 1 mg/ml in the presence or absence of added unmodified ubiquitin (1 mg/ml) used as competitor. Cyclin-luciferase and cyclin BΔ90 were then added. After 60 minutes, the reactions were stopped and analyzed as described above.
Dry compounds were redissolved at 20 mM concentration in DMSO, or a 50:50 water:DMSO mixture in certain cases. These compounds were then diluted ten-fold in XB and mixed thoroughly. For the assay in FIG. 1A, chilled interphase extract was mixed with cyclin BΔ90 (10 μg/ml) and cyc-luc (0.1 μg/ml) in bulk and then 27 μl of extract was pipetted to each well of a chilled 384-well plate.

For assay [5], the system named is HEK-293 cells stably expressing GFP-AR. In words: Protac-induced GFP-AR degradation in microinjected HEK-293 cells. The note with it: microinjection, 100 nM. The assay is classed as cell-based.
Procedure: The results are representative of experiments performed on 3 separate days.
The effect of ubistatin A on protein degradation within intact mammalian cells was also evaluated (FIG. 4). Since the negative charge of the molecule was predicted to preclude efficient entry into the cell, compound was introduced by microinjection.
HEK-293 cells stably transfected with a plasmid that expresses GFP-AR were microinjected with 0.2 pl (5-10% of cell volume) of a 200 mM KCl solution containing 10 μM Protac and 50 mg/ml rhodamine dextran (MW 10,000 Da).

Turning to `Nc1nc2c(c(=O)[nH]1)c1c(N)ncnc1n2C1OC(CO)C(O)C1O` (stereo not shown) [Compound 57], the “percent inhibition of cyc-luc turnover, (B) Mitotic extracts” value (“percent inhibition … (B) Mitotic extracts” below) in assay [1] was 4%. For the same compound, the “percent inhibition of cyc-luc turnover, (C) Interphase extracts stimulated with Cdh1” value (shortened to “percent inhibition … with Cdh1”) in assay [2] is reported as 0%. Moreover, in assay [3], the “percent inhibition, (D) Degradation of a β-catenin reporter protein in interphase extracts stimulated with recombinant axin” value (“percent inhibition, (D) Degradation” for short) was found to be 60%. The “percent inhibition of cyc-luc turnover, (A) Interphase extracts” value (shortened to “percent inhibition … (A) Interphase extracts”) in assay [4] is given as 100%.
The corresponding values for `O[Si](c1ccccc1)(c1ccccc1)c1ccccc1.O[Si](c1ccccc1)(c1ccccc1)c1ccccc1.O[Si](c1ccccc1)(c1ccccc1)c1ccccc1.[O]=[V]` [Compound 61] are 8%, −8%, 2% and 77%.
The corresponding values for `O=c1[nH]c(O)nc2cc3[nH]ncc3cc12` [Compound 62] are 0%, −8%, 0% and 84%.
As to `O=c1[nH]cnc2c1ccc1[nH]ncc12` [Compound 67], in assay [1], the “percent inhibition … (B) Mitotic extracts” value was determined as 3%. The “percent inhibition … with Cdh1” value in assay [2] is given as −8%. Moreover, in assay [3], the “percent inhibition, (D) Degradation” value is on record as 3%. Further, the “percent inhibition … (A) Interphase extracts” value in assay [4] was found to be 53%.
For `O/N=C(/C=N/O)SCCSC(/C=N/O)=N/O` [Compound 77], the “percent inhibition … (B) Mitotic extracts” value in assay [1] was found to be 4%. Further, the “percent inhibition … with Cdh1” value in assay [2] is reported as −12%. Further, in assay [3], the “percent inhibition, (D) Degradation” value came out at 0%. Besides, the “percent inhibition … (A) Interphase extracts” value in assay [4] was 100%.
Take `NC(=O)c1ncn(C2OC(CO)C(O)C2O)c1C(N)=O` (stereo not shown) [Compound 82]: the “percent inhibition … (B) Mitotic extracts” value in assay [1] is on record as 0%. Also, the “percent inhibition … with Cdh1” value in assay [2] is 0%. Further, the “percent inhibition, (D) Degradation” value in assay [3] came to 0%. For the same compound, in assay [4], the “percent inhibition … (A) Interphase extracts” value worked out at 100%.
For `CC[C@H](C)[C@H](NC(=O)[C@H]([C@@H](C)CC)N(C)C(C)=O)C(=O)N[C@H](C(=O)N[C@@H](CC(C)C)C(=O)[C@@]1(C)CO1)[C@@H](C)O` [epoxomicin], in assay [5], the “block of Protac-X induced loss of GFP-AR” value was “completely blocked”.
